{"source": "PubChem BioAssay (NCI)", "experiment_in_all_cases": "NCI tumour cell line growth inhibition, 384-well format", "key": {"OVCAR-3 ovarian": {"tested_on": "OVCAR-3 ovarian"}, "CCRF-CEM leukemia": {"tested_on": "CCRF-CEM leukemia"}, "LOX IMVI melanoma": {"tested_on": "LOX IMVI melanoma"}, "ACHN renal": {"tested_on": "ACHN renal"}, "786-0 renal": {"tested_on": "786-0 renal"}, "HOP-62 NSCLC": {"tested_on": "HOP-62 NSCLC"}, "U251 glioblastoma": {"tested_on": "U251 glioblastoma"}, "T-47D breast": {"tested_on": "T-47D breast"}, "NCI-H322M lung": {"tested_on": "NCI-H322M lung"}, "SK-MEL-28 melanoma": {"tested_on": "SK-MEL-28 melanoma"}, "OVCAR-4 ovarian": {"tested_on": "OVCAR-4 ovarian"}, "SK-MEL-2 melanoma": {"tested_on": "SK-MEL-2 melanoma"}, "NCI-H226 lung": {"tested_on": "NCI-H226 lung"}, "UO-31 renal": {"tested_on": "UO-31 renal"}, "SF-539 CNS": {"tested_on": "SF-539 CNS"}, "PC-3 prostate": {"tested_on": "PC-3 prostate"}, "RPMI-8226 leukemia": {"tested_on": "RPMI-8226 leukemia"}, "OVCAR-5 ovarian": {"tested_on": "OVCAR-5 ovarian"}, "COLO 205 colon": {"tested_on": "COLO 205 colon"}, "A549 NSCLC": {"tested_on": "A549 NSCLC"}, "TK-10 renal": {"tested_on": "TK-10 renal"}, "IGROV1 ovarian": {"tested_on": "IGROV1 ovarian"}, "OVCAR-8 ovarian": {"tested_on": "OVCAR-8 ovarian"}, "NCI-H23 lung": {"tested_on": "NCI-H23 lung"}, "SN12C renal": {"tested_on": "SN12C renal"}, "SF-268 CNS": {"tested_on": "SF-268 CNS"}, "MDA-MB-231 breast": {"tested_on": "MDA-MB-231 breast"}, "HL-60(TB) leukemia": {"tested_on": "HL-60(TB) leukemia"}}, "note": "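GI50: concentration for 50% inhibition of growth. TGI: concentration producing complete growth inhibition.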"}
{"smiles": "CN[C@@H](C)C(=O)N[C@H]1CN(S(=O)(=O)c2cccc(S(=O)(=O)N3CC[C@H]4CC[C@@H](C(=O)NC(c5ccccc5)c5ccccc5)N4C(=O)[C@@H](NC(=O)[C@H](C)NC)C3)c2)CC[C@H]2CC[C@@H](C(=O)NC(c3ccccc3)c3ccccc3)N2C1=O", "values": [{"measurement": "GI50", "setting": "OVCAR-3 ovarian", "result": 2.17, "unit": "µM"}, {"measurement": "TGI", "setting": "OVCAR-3 ovarian", "result": 17.6, "unit": "µM"}, {"measurement": "GI50", "setting": "CCRF-CEM leukemia", "result": 0.0133, "unit": "µM"}, {"measurement": "TGI", "setting": "CCRF-CEM leukemia", "result": 1.46, "unit": "µM"}, {"measurement": "GI50", "setting": "LOX IMVI melanoma", "result": 13, "unit": "µM"}, {"measurement": "TGI", "setting": "LOX IMVI melanoma", "result": 25.7, "unit": "µM"}, {"measurement": "GI50", "setting": "ACHN renal", "result": "> 100", "unit": "µM"}, {"measurement": "TGI", "setting": "ACHN renal", "result": "> 100", "unit": "µM"}, {"measurement": "GI50", "setting": "786-0 renal", "result": 23.5, "unit": "µM"}, {"measurement": "TGI", "setting": "786-0 renal", "result": 62.8, "unit": "µM"}, {"measurement": "GI50", "setting": "HOP-62 NSCLC", "result": 0.57, "unit": "µM"}, {"measurement": "TGI", "setting": "HOP-62 NSCLC", "result": 4.56, "unit": "µM"}, {"measurement": "GI50", "setting": "U251 glioblastoma", "result": 12.6, "unit": "µM"}, {"measurement": "TGI", "setting": "U251 glioblastoma", "result": 25.9, "unit": "µM"}, {"measurement": "GI50", "setting": "T-47D breast", "result": 13.8, "unit": "µM"}, {"measurement": "TGI", "setting": "T-47D breast", "result": 28, "unit": "µM"}, {"measurement": "GI50", "setting": "NCI-H322M lung", "result": 16.6, "unit": "µM"}, {"measurement": "TGI", "setting": "NCI-H322M lung", "result": 30.3, "unit": "µM"}, {"measurement": "GI50", "setting": "SK-MEL-28 melanoma", "result": 12.6, "unit": "µM"}, {"measurement": "TGI", "setting": "SK-MEL-28 melanoma", "result": 25.2, "unit": "µM"}, {"measurement": "GI50", "setting": "OVCAR-4 ovarian", "result": "< 0.01", "unit": "µM"}, {"measurement": "TGI", "setting": "OVCAR-4 ovarian", "result": "< 0.01", "unit": "µM"}, {"measurement": "GI50", "setting": "SK-MEL-2 melanoma", "result": "< 0.01", "unit": "µM"}, {"measurement": "TGI", "setting": "SK-MEL-2 melanoma", "result": "< 0.01", "unit": "µM"}, {"measurement": "GI50", "setting": "NCI-H226 lung", "result": 17.4, "unit": "µM"}, {"measurement": "TGI", "setting": "NCI-H226 lung", "result": 47.7, "unit": "µM"}, {"measurement": "GI50", "setting": "UO-31 renal", "result": 76, "unit": "µM"}, {"measurement": "TGI", "setting": "UO-31 renal", "result": "> 100", "unit": "µM"}, {"measurement": "GI50", "setting": "SF-539 CNS", "result": 16.6, "unit": "µM"}, {"measurement": "TGI", "setting": "SF-539 CNS", "result": 30.2, "unit": "µM"}, {"measurement": "GI50", "setting": "PC-3 prostate", "result": 15.5, "unit": "µM"}, {"measurement": "TGI", "setting": "PC-3 prostate", "result": 28.9, "unit": "µM"}, {"measurement": "GI50", "setting": "RPMI-8226 leukemia", "result": 0.0326, "unit": "µM"}, {"measurement": "TGI", "setting": "RPMI-8226 leukemia", "result": 1.23, "unit": "µM"}, {"measurement": "GI50", "setting": "OVCAR-5 ovarian", "result": 19.1, "unit": "µM"}, {"measurement": "TGI", "setting": "OVCAR-5 ovarian", "result": 34.8, "unit": "µM"}, {"measurement": "GI50", "setting": "COLO 205 colon", "result": 12.5, "unit": "µM"}, {"measurement": "TGI", "setting": "COLO 205 colon", "result": 26, "unit": "µM"}, {"measurement": "GI50", "setting": "A549 NSCLC", "result": 46.6, "unit": "µM"}, {"measurement": "TGI", "setting": "A549 NSCLC", "result": "> 100", "unit": "µM"}, {"measurement": "GI50", "setting": "TK-10 renal", "result": 44, "unit": "µM"}, {"measurement": "TGI", "setting": "TK-10 renal", "result": "> 100", "unit": "µM"}, {"measurement": "GI50", "setting": "IGROV1 ovarian", "result": 16.1, "unit": "µM"}, {"measurement": "TGI", "setting": "IGROV1 ovarian", "result": 30.3, "unit": "µM"}, {"measurement": "GI50", "setting": "OVCAR-8 ovarian", "result": 2.24, "unit": "µM"}, {"measurement": "TGI", "setting": "OVCAR-8 ovarian", "result": 19.3, "unit": "µM"}, {"measurement": "GI50", "setting": "NCI-H23 lung", "result": 0.0315, "unit": "µM"}, {"measurement": "TGI", "setting": "NCI-H23 lung", "result": 0.459, "unit": "µM"}, {"measurement": "GI50", "setting": "SN12C renal", "result": 20.8, "unit": "µM"}, {"measurement": "TGI", "setting": "SN12C renal", "result": 37.3, "unit": "µM"}, {"measurement": "GI50", "setting": "SF-268 CNS", "result": 13.2, "unit": "µM"}, {"measurement": "TGI", "setting": "SF-268 CNS", "result": 26, "unit": "µM"}, {"measurement": "GI50", "setting": "MDA-MB-231 breast", "result": "< 0.01", "unit": "µM"}, {"measurement": "TGI", "setting": "MDA-MB-231 breast", "result": "< 0.01", "unit": "µM"}, {"measurement": "GI50", "setting": "HL-60(TB) leukemia", "result": "< 0.01", "unit": "µM"}]}
